# Literature values as cited in patent publication US20260021122A1, “CANNABINOIDS AND USES THEREOF IN TREATMENT OF A DISEASE” (TECHNION RESEARCH & DEVELOPMENT FOUNDATION LIMITED, priority 2022, published 2026).
# Key:
# MDSCs = conditions: one study, literature; cited from earlier work
# [1] = test system: triple-negative breast cancer; conditions: conditioned media from CBD-treated cancer cells, literature; cited from earlier work
Structure (SMILES),antitumor effects (MDSCs),suppressive immune cell population of MDSCs (MDSCs),levels of CCL3 [1],levels of Granulocyte-macrophage (GM)-CSF [1]
"CCCCC/C=C\C/C=C\C/C=C\C/C=C\CCCC(=O)OC(CO)CO [2-AG, 2-arachidonoylglycerol]",exhibits direct antitumor effects,increasing the suppressive immune cell population of MDSCs,,
"C=C(C)[C@@H]1CCC(C)=C[C@H]1c1c(O)cc(CCCCC)cc1O [CBD, Cannabidiol]",,,lowered the levels,lowered the levels
